These results are taken from ChEMBL document CHEMBL5346909, “Korupensamine A, but not its atropisomer, korupensamine B, inhibits SARS-CoV-2 in vitro by targeting its main protease (Mpro)” (Eur J Med Chem, 2023).

Each structure is given as a SMILES string.

For series [1], the target named is T1, Replicase polyprotein 1ab (Severe acute respiratory syndrome coronavirus 2, UniProt P0DTD1). Description: Inhibition of SARS CoV-2 main protease.
The target in series [2] is T1, Replicase polyprotein 1ab. Nature of the series: Binding affinity to SARS CoV-2 main protease assessed as inhibition constant.
The next series relates to SARS-CoV-2. Nature of the series: Antiviral activity against SARS-CoV-2 infected in African green monkey Vero cells assessed as inhibition of viral replication measured after 24 hrs post infection by qRT-PCR analysis. It is filed as functional, organism-based. Conditions: Severe acute respiratory syndrome coronavirus 2, Vero.
Series [3] in a line: Cytotoxicity against African green monkey Vero cells incubated for 3 days by automatic cell counting method. Particulars: chlorocebus sabaeus, time 3 day. It is filed as toxicity, cell-based.

As a reminder, the IC50 is the midpoint of a concentration-inhibition curve. Usually Ki stands for the dissociation constant of the complex between target and ligand, obtained from inhibition or displacement. In general, EC50 refers to the midpoint of the concentration-response curve. A word on the CC50: it is the concentration that lowers cell viability or growth by half.

In the case of `COc1cc(C)cc2c(-c3c(O)cc(O)c4c3C[C@@H](C)N[C@@H]4C)ccc(O)c12` (stereo in doubt; 1a) [KORUPENSAMINE A], the concentration for half-maximal inhibition (IC50) in series [1] came out at 2.52 µM. In addition, the inhibition constant (Ki) in series [2] was 1.42 µM. Also, in the series with SARS-CoV-2, the 50% effective concentration (EC50) came to 4.23 µM. For the same compound, the midpoint of cytotoxicity in series [3], the CC50 at 72 h, lay at 35.1 µM.
Turning to `COc1cc(C)cc2c(-c3c(O)cc(O)c4c3C[C@@H](C)N[C@@H]4C)ccc(O)c12` (stereo in doubt; 1b) [KORUPENSAMINE A], inhibition in series [1] was half-maximal at 71.9 µM (IC50).
